In this test the test system is B6C3F1 mice, B16 melanoma ip, median survival T/C. The experiment in a line: NCI In Vivo Anticancer Drug Screen. Data for tumor model B16 Melanoma (intraperitoneal) in B6C3F1 mice. Conditions: endpoint: median survival time, higher = longer survival. The method, boiled down:
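Readout: survival or tumor size in treated mice relative to vehicle controls (T/C). Model uses transplantable tumors grown in mice.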

The mark [1] stands for this setting: dose: 6.25 mg/kg/injection, schedule: Q01DX009 (ip), vehicle: saline with Tween-80.
The mark [2] stands for this setting: dose: 12.5 mg/kg/injection, schedule: Q01DX009 (ip), vehicle: saline with Tween-80.
The mark [3] stands for this setting: dose: 25.0 mg/kg/injection, schedule: Q01DX009 (ip), vehicle: saline with Tween-80.
[4] abbreviates: dose: 50.0 mg/kg/injection, schedule: Q01DX009 (ip), vehicle: saline with Tween-80.
The mark [5] stands for this setting: dose: 100.0 mg/kg/injection, schedule: Q01DX009 (ip), vehicle: saline with Tween-80.

From PubChem BioAssay AID200 (DTP/NCI, 2004) come the findings set out here.

Each structure is given as a SMILES string. Where “and” joins values, the source holds several entries; their conditions need not be identical. Equal entries are not always repeated. Inconclusive results and toxic doses are left out.

As for `CS(C)(O)NC(N)=O`, the T/C reads like this: (dose: 50.0 mg/kg/injection, schedule: Q01DX009 (ip), vehicle: water) 105 % of control; (dose: 100.0 mg/kg/injection, schedule: Q01DX009 (ip), vehicle: water) 103 % of control; (dose: 200.0 mg/kg/injection, schedule: Q01DX009 (ip), vehicle: water) 100 % of control; (dose: 400.0 mg/kg/injection, schedule: Q01DX009 (ip), vehicle: water) 105 % of control.
Consider `COC(=O)Nc1ccc(Cc2ccc(NC(=O)OC)cc2)cc1`, for which the T/C is 98 % of control under setting [1]; 99 % of control under setting [2]; 109 % of control and 98 % of control under setting [3]; 109 % of control under setting [4]; 150 % of control under setting [5].
As for `COC1=C2C[C@@H](C)C[C@@H](OC)[C@@H](O)[C@H](C)/C=C(\C)[C@@H](OC(N)=O)[C@H](OC)/C=C\C=C(/C)C(=O)NC(=CC1=O)C2=O`, the T/C (dose: 0.12 mg/kg/injection, schedule: Q01DX009 (ip), vehicle: saline with Tween-80) is 103 % of control and 106 % of control; the T/C (dose: 0.13 mg/kg/injection, schedule: Q01DX009 (ip), vehicle: saline with Tween-80) is 105 % of control; the T/C (dose: 0.25 mg/kg/injection, schedule: Q01DX009 (ip), vehicle: saline with Tween-80) is 108 % of control and 118 % of control; the T/C (dose: 0.5 mg/kg/injection, schedule: Q01DX009 (ip), vehicle: saline with Tween-80) is 122 % of control and 102 % of control and 105 % of control; the T/C (dose: 1.0 mg/kg/injection, schedule: Q01DX009 (ip), vehicle: saline with Tween-80) was 109 % of control and 102 % of control; the T/C (dose: 2.0 mg/kg/injection, schedule: Q01DX009 (ip), vehicle: saline with Tween-80) was 123 % of control and 106 % of control.
Regarding `O=CC(O)C(O)C(O)C(O)C(=O)O.[NH-]C1CCCCC1[NH-].[Pt+2]` (stereo not given), the T/C is, setting by setting: (dose: 0.19 mg/kg/injection, schedule: Q01DX009 (ip), vehicle: saline) 108 % of control; (dose: 1.5 mg/kg/injection, schedule: Q01DX009 (ip), vehicle: saline) 177 % of control; (dose: 3.0 mg/kg/injection, schedule: Q01DX009 (ip), vehicle: saline) 187 % of control.
As to `Cc1cc(NCCN(C(C)C)C(C)C)nc(/N=C(\N)Nc2ccc(Cl)c(C(F)(F)F)c2)n1`, the T/C was 111 % of control (dose: 1.25 mg/kg/injection, schedule: Q01DX009 (ip), vehicle: Klucel (hydroxypropylcellulose) (HPC)); 106 % of control (dose: 2.5 mg/kg/injection, schedule: Q01DX009 (ip), vehicle: Klucel (hydroxypropylcellulose) (HPC)); 100 % of control (dose: 5.0 mg/kg/injection, schedule: Q01DX009 (ip), vehicle: Klucel (hydroxypropylcellulose) (HPC)); 86 % of control (dose: 10.0 mg/kg/injection, schedule: Q01DX009 (ip), vehicle: Klucel (hydroxypropylcellulose) (HPC)); 96 % of control (dose: 20.0 mg/kg/injection, schedule: Q01DX009 (ip), vehicle: Klucel (hydroxypropylcellulose) (HPC)); 98 % of control (dose: 40.0 mg/kg/injection, schedule: Q01DX009 (ip), vehicle: Klucel (hydroxypropylcellulose) (HPC)).
On to `c1ccc2c(c1)[As]=c1ccccc1=[As]2` (stereo not given), for which the T/C (dose: 0.75 mg/kg/injection, schedule: Q01DX009 (ip), vehicle: saline with Tween-80) is 105 % of control; the T/C (dose: 1.5 mg/kg/injection, schedule: Q01DX009 (ip), vehicle: saline with Tween-80) is 112 % of control and 103 % of control; the T/C (dose: 3.0 mg/kg/injection, schedule: Q01DX009 (ip), vehicle: saline with Tween-80) is 107 % of control and 108 % of control; the T/C (dose: 6.0 mg/kg/injection, schedule: Q01DX009 (ip), vehicle: saline with Tween-80) is 115 % of control and 98 % of control; the T/C (dose: 12.0 mg/kg/injection, schedule: Q01DX009 (ip), vehicle: saline with Tween-80) is 122 % of control; the T/C (dose: 24.0 mg/kg/injection, schedule: Q01DX009 (ip), vehicle: saline with Tween-80) was 87 % of control.
Regarding `N#C[C@H](OC1OC(COC2OC(CO)C(O)C(O)C2O)C(O)C(O)C1O)c1ccccc1` (stereo not given in full), the T/C (dose: 12.5 mg/kg/injection, schedule: Q01DX009 (oral), vehicle: saline) is 96 % of control; the T/C (dose: 25.0 mg/kg/injection, schedule: Q01DX009 (ip), vehicle: suspension in saline) was 98 % of control; the T/C (dose: 25.0 mg/kg/injection, schedule: Q01DX009 (oral), vehicle: saline) was 101 % of control; the T/C (dose: 50.0 mg/kg/injection, schedule: Q01DX009 (ip), vehicle: suspension in saline) is 98 % of control; the T/C (dose: 50.0 mg/kg/injection, schedule: Q01DX009 (oral), vehicle: saline) was 98 % of control (2×) and 102 % of control; the T/C (dose: 100.0 mg/kg/injection, schedule: Q01DX009 (ip), vehicle: suspension in saline) was 108 % of control. Also, the T/C reads like this: (dose: 200.0 mg/kg/injection, schedule: Q01DX009 (ip), vehicle: suspension in saline) 121 % of control; (dose: 400.0 mg/kg/injection, schedule: Q01DX009 (ip), vehicle: suspension in saline) 103 % of control; (dose: 800.0 mg/kg/injection, schedule: Q01DX009 (ip), vehicle: suspension in saline) 111 % of control.
With `c1ccc(P(CCNCCP(c2ccccc2)c2ccccc2)c2ccccc2)cc1`, the T/C by setting is: under setting [3], 113 % of control; under setting [4], 105 % of control; under setting [5], 116 % of control.
Turning to `NCC(O)c1ccc(O)c(O)c1` (stereo not given), the T/C is 109 % of control (dose: 0.39 mg/kg/injection, schedule: Q01DX009 (ip), vehicle: suspension in saline); 96 % of control (dose: 0.75 mg/kg/injection, schedule: Q01DX009 (ip), vehicle: suspension in saline); 103 % of control (dose: 1.5 mg/kg/injection, schedule: Q01DX009 (ip), vehicle: suspension in saline); 100 % of control (dose: 3.0 mg/kg/injection, schedule: Q01DX009 (ip), vehicle: suspension in saline); 100 % of control and 106 % of control (dose: 6.0 mg/kg/injection, schedule: Q01DX009 (ip), vehicle: suspension in saline); 124 % of control and 105 % of control (dose: 12.0 mg/kg/injection, schedule: Q01DX009 (ip), vehicle: suspension in saline). Also, the T/C (dose: 24.0 mg/kg/injection, schedule: Q01DX009 (ip), vehicle: suspension in saline) was 100 % of control.
On to `CCCC(NC(=O)C(C)N)C(=O)O` (stereo not given), for which the T/C reads like this: (dose: 50.0 mg/kg/injection, schedule: Q01DX009 (ip), vehicle: Klucel (hydroxypropylcellulose) (HPC)) 106 % of control; (dose: 100.0 mg/kg/injection, schedule: Q01DX009 (ip), vehicle: Klucel (hydroxypropylcellulose) (HPC)) 112 % of control; (dose: 200.0 mg/kg/injection, schedule: Q01DX009 (ip), vehicle: Klucel (hydroxypropylcellulose) (HPC)) 92 % of control; (dose: 400.0 mg/kg/injection, schedule: Q01DX009 (ip), vehicle: Klucel (hydroxypropylcellulose) (HPC)) 98 % of control.
In the case of `COc1cc2c3c(cccc3c1)C(=O)N(CCN(C)C)C2=O`, the T/C is 119 % of control and 95 % of control (dose: 5.0 mg/kg/injection, schedule: Q01DX009 (ip), vehicle: saline with Tween-80); 115 % of control and 100 % of control (dose: 10.0 mg/kg/injection, schedule: Q01DX009 (ip), vehicle: saline with Tween-80); 110 % of control and 100 % of control and 105 % of control (dose: 20.0 mg/kg/injection, schedule: Q01DX009 (ip), vehicle: saline with Tween-80); 109 % of control and 121 % of control and 104 % of control (dose: 40.0 mg/kg/injection, schedule: Q01DX009 (ip), vehicle: saline with Tween-80); 107 % of control (dose: 80.0 mg/kg/injection, schedule: Q01DX009 (ip), vehicle: saline with Tween-80).
As for `COC(=O)Nc1cn2cc(C(=O)c3cccs3)ccc2n1`, the T/C was 122 % of control (dose: 6.25 mg/kg/injection, schedule: Q01DX009 (ip), vehicle: Klucel (hydroxypropylcellulose) (HPC)); 159 % of control and 175 % of control (dose: 25.0 mg/kg/injection, schedule: Q01DX009 (ip), vehicle: Klucel (hydroxypropylcellulose) (HPC)); 179 % of control (dose: 50.0 mg/kg/injection, schedule: Q01DX009 (ip), vehicle: other).
As for `COC(=O)Nc1nc2ccc(C3(c4ccc(F)cc4)OCCO3)cc2[nH]1`, the T/C reads like this: under setting [1], 93 % of control; under setting [2], 118 % of control; (dose: 12.5 mg/kg/injection, schedule: Q01DX009 (ip), vehicle: saline) 117 % of control; under setting [4], 172 % of control.
Turning to `O=C1N[C@H]2[C@H](O)[C@H](O)[C@@H](O)[C@H](O)[C@@H]2c2cc3c(c(O)c21)OCO3`, the T/C runs as follows: (dose: 1.5 mg/kg/injection, schedule: Q01DX009 (ip), vehicle: saline + alcohol) 100 % of control; (dose: 1.56 mg/kg/injection, schedule: Q01DX009 (ip), vehicle: saline + alcohol) 108 % of control; (dose: 3.0 mg/kg/injection, schedule: Q01DX009 (ip), vehicle: saline + alcohol) 103 % of control; (dose: 6.0 mg/kg/injection, schedule: Q01DX009 (ip), vehicle: saline + alcohol) 114 % of control; (dose: 6.25 mg/kg/injection, schedule: Q01DX009 (ip), vehicle: saline + alcohol) 110 % of control.
